Measured values: paper PMC5218480 (PLoS ONE, 2017)

System: MV-4-11 cells
Assay: Gene expression microarray analysis (Affymetrix PrimeView) and GSEA
Assay type: cell-based, human
Design: RFU PODN (11730768_x_at) / Fold change /veh PODN (11730768_x_at) / RFU LINC00158 (11744669_a_at) / Fold change /veh LINC00158 (11744669_a_at) / RFU DUSP10 (11751237_a_at) / Fold change /veh DUSP10 (11751237_a_at) / RFU ID3 (11757404_x_at) / Fold change /veh ID3 (11757404_x_at) / RFU PLEKHG5 (11737974_s_at) / Fold change /veh PLEKHG5 (11737974_s_at) / RFU LRRC4B (11730491_at) / Fold change /veh LRRC4B (11730491_at) / RFU GIMAP4 (11747438_a_at) / Fold change /veh GIMAP4 (11747438_a_at) / RFU KRT8 (11758183_x_at) / Fold change /veh KRT8 (11758183_x_at) / RFU CNN1 (11734310_a_at) / Fold change /veh CNN1 (11734310_a_at) / RFU VPS37D (11726825_at) / Fold change /veh VPS37D (11726825_at) / RFU C10orf10 (11716522_x_at) / Fold change /veh C10orf10 (11716522_x_at) / RFU KIR2DL2 /// KIR2DL4 /// KIR2DL5A /// KIR2DL5B /// KIR2DS1 /// KIR2DS2 /// KIR2DS3 /// KIR2DS4 /// KIR3DL3 /// KIR3DL3 /// KIR3DS1 (11738374_at) / Fold change /veh KIR2DL2 /// KIR2DL4 /// KIR2DL5A /// KIR2DL5B /// KIR2DS1 /// KIR2DS2 /// KIR2DS3 /// KIR2DS4 /// KIR3DL3 /// KIR3DL3 /// KIR3DS1 (11738374_at) / RFU C1QL1 (11718748_at) / Fold change /veh C1QL1 (11718748_at) / RFU TMPRSS4 (11747572_a_at) / Fold change /veh TMPRSS4 (11747572_a_at) / RFU HAMP (11756126_x_at) / Fold change /veh HAMP (11756126_x_at) / RFU RNFT2 (11725882_a_at) / Fold change /veh RNFT2 (11725882_a_at) / RFU NR4A2 (11747474_a_at) / Fold change /veh NR4A2 (11747474_a_at) / RFU ABCC12 (11746883_a_at) / Fold change /veh ABCC12 (11746883_a_at) / RFU TMEM136 (11760407_x_at) / Fold change /veh TMEM136 (11760407_x_at) / RFU CLDN22 /// WWC2 (11732394_at) / Fold change /veh CLDN22 /// WWC2 (11732394_at) / RFU HLA-DPB1 (11760878_x_at) / Fold change /veh HLA-DPB1 (11760878_x_at) / RFU SPINT1 (11716480_a_at) / Fold change /veh SPINT1 (11716480_a_at) / RFU GAP43 (11754022_s_at) / Fold change /veh GAP43 (11754022_s_at) / RFU A4GNT (11735810_at) / Fold change /veh A4GNT (11735810_at) / RFU PRB3 (11715151_x_at) / Fold change /veh PRB3 (11715151_x_at) / RFU TUBB4B (11761932_at) / Fold change /veh TUBB4B (11761932_at) / RFU CAPN14 (11732068_a_at) / Fold change /veh CAPN14 (11732068_a_at) / RFU TMCC2 (11721928_a_at) / Fold change /veh TMCC2 (11721928_a_at) / RFU IRGQ (11745062_a_at) / Fold change /veh IRGQ (11745062_a_at) / RFU FAM174B (11720279_a_at) / Fold change /veh FAM174B (11720279_a_at) / RFU TMPRSS4 (11748680_a_at) / Fold change /veh TMPRSS4 (11748680_a_at) / RFU FAM212B (11763350_a_at) / Fold change /veh FAM212B (11763350_a_at) / RFU PLEKHG5 (11743358_a_at) / Fold change /veh PLEKHG5 (11743358_a_at) / RFU ZSCAN30 (11745921_a_at) / Fold change /veh ZSCAN30 (11745921_a_at) / RFU CMKLR1 (11741424_a_at) / Fold change /veh CMKLR1 (11741424_a_at) / RFU LOC101060620 /// MAPK8IP1 (11723275_at) / Fold change /veh LOC101060620 /// MAPK8IP1 (11723275_at) / RFU SPTSSB (11747773_x_at) / Fold change /veh SPTSSB (11747773_x_at) / RFU PRSS12 (11739890_at) / Fold change /veh PRSS12 (11739890_at) / RFU BIN1 (11741810_x_at) / Fold change /veh BIN1 (11741810_x_at) / RFU WNT11 (11732464_a_at) / Fold change /veh WNT11 (11732464_a_at) / RFU C10orf10 (11716521_a_at) / Fold change /veh C10orf10 (11716521_a_at) / RFU C5orf56 (11738089_at) / Fold change /veh C5orf56 (11738089_at) / RFU CYB561 (11721691_x_at) / Fold change /veh CYB561 (11721691_x_at) / RFU ANKRD19P (11752326_a_at) / Fold change /veh ANKRD19P (11752326_a_at) / RFU OR2T12 /// OR2T33 /// OR2T8 (11738714_s_at) / Fold change /veh OR2T12 /// OR2T33 /// OR2T8 (11738714_s_at) / RFU VCAN (11748164_a_at) / Fold change /veh VCAN (11748164_a_at) / RFU JSRP1 (11732532_at) / Fold change /veh JSRP1 (11732532_at) / RFU KRTAP10-11 (11738290_x_at) / Fold change /veh KRTAP10-11 (11738290_x_at) / RFU MYO3A (11730013_a_at) / Fold change /veh MYO3A (11730013_a_at) / RFU EBF3 (11725865_a_at) / Fold change /veh EBF3 (11725865_a_at) / RFU CAMK2N1 (11719241_x_at) / Fold change /veh CAMK2N1 (11719241_x_at) / RFU C5orf56 (11738088_a_at) / Fold change /veh C5orf56 (11738088_a_at) / RFU OLFML3 (11715873_a_at) / Fold change /veh OLFML3 (11715873_a_at) / RFU LOC100653217 /// NTM (11731650_a_at) / Fold change /veh LOC100653217 /// NTM (11731650_a_at) / RFU MAPK11 (11762145_a_at) / Fold change /veh MAPK11 (11762145_a_at) / RFU FIZ1 (11724087_x_at) / Fold change /veh FIZ1 (11724087_x_at) / RFU OASL (11726364_x_at) / Fold change /veh OASL (11726364_x_at) / RFU SOX15 (11748057_x_at) / Fold change /veh SOX15 (11748057_x_at) / RFU CD79A (11719716_a_at) / Fold change /veh CD79A (11719716_a_at) / RFU HIST1H1D (11736915_at) / Fold change /veh HIST1H1D (11736915_at) / RFU CASKIN2 (11723855_a_at) / Fold change /veh CASKIN2 (11723855_a_at) / RFU LOC730098 (11760151_x_at) / Fold change /veh LOC730098 (11760151_x_at) / RFU OR4N2 (11742367_at) / Fold change /veh OR4N2 (11742367_at) / RFU PRRT2 (11749266_a_at) / Fold change /veh PRRT2 (11749266_a_at) / RFU SNX32 (11753110_a_at) / Fold change /veh SNX32 (11753110_a_at) / RFU CDHR5 (11726645_a_at) / Fold change /veh CDHR5 (11726645_a_at) / RFU RCAN1 (11760418_a_at) / Fold change /veh RCAN1 (11760418_a_at) / RFU FAM167A (11723789_a_at) / Fold change /veh FAM167A (11723789_a_at) / RFU FAM26E (11764081_at) / Fold change /veh FAM26E (11764081_at) / RFU ISYNA1 (11749810_s_at) / Fold change /veh ISYNA1 (11749810_s_at) / RFU ACY1 (11761880_at) / Fold change /veh ACY1 (11761880_at) / RFU 11764098_at / Fold change /veh 11764098_at / RFU SAMD14 (11745864_x_at) / Fold change /veh SAMD14 (11745864_x_at) / RFU NPB (11741838_a_at) / Fold change /veh NPB (11741838_a_at) / RFU TMPRSS6 (11731388_a_at) / Fold change /veh TMPRSS6 (11731388_a_at) / RFU KRTAP10-2 (11738614_at) / Fold change /veh KRTAP10-2 (11738614_at) / RFU ARHGAP8 /// PRR5-ARHGAP8 (11727945_x_at) / Fold change /veh ARHGAP8 /// PRR5-ARHGAP8 (11727945_x_at) / RFU KRTAP5-7 /// NADSYN1 (11734609_at) / Fold change /veh KRTAP5-7 /// NADSYN1 (11734609_at) / RFU RASL12 (11751679_a_at) / Fold change /veh RASL12 (11751679_a_at) / RFU CDKN2B (11736163_a_at) / Fold change /veh CDKN2B (11736163_a_at) / RFU PRF1 (11729649_at) / Fold change /veh PRF1 (11729649_at) / RFU, ZNF638 /// ZNF638-IT1 / Fold change vs veh, ZNF638 /// ZNF638-IT1 / RFU, PANK3 / Fold change vs veh, PANK3 / RFU, SH3YL1 / Fold change vs veh, SH3YL1 / RFU, ZEB2 / Fold change vs veh, ZEB2 / RFU, NRIP1 / Fold change vs veh, NRIP1 / RFU, PTTG1IP / Fold change vs veh, PTTG1IP / RFU, CAPN2 / Fold change vs veh, CAPN2 / RFU, MED14 / Fold change vs veh, MED14 / RFU, SNORA58 / Fold change vs veh, SNORA58 / RFU, C1orf63 / Fold change vs veh, C1orf63 / RFU, LRRFIP1 / Fold change vs veh, LRRFIP1 / RFU, NDUFAF7 / Fold change vs veh, NDUFAF7 / RFU, SLC12A2 / Fold change vs veh, SLC12A2 / RFU, IBTK / Fold change vs veh, IBTK / RFU, ESF1 / Fold change vs veh, ESF1 / Fold change vs veh, TMEM50B / RFU, TAOK1 / Fold change vs veh, TAOK1 / RFU, ACBD3 / Fold change vs veh, ACBD3 / RFU, TMA16 / Fold change vs veh, TMA16 / RFU, RWDD3 / Fold change vs veh, RWDD3 / RFU, BCAT1 / Fold change vs veh, BCAT1 / RFU, EDEM3 / Fold change vs veh, EDEM3 / RFU, TMEM33 / Fold change vs veh, TMEM33 / RFU, WDR75 / Fold change vs veh, WDR75 / RFU, AHCTF1 / Fold change vs veh, AHCTF1 / RFU, TFRC / Fold change vs veh, TFRC / RFU, ZDHHC17 / Fold change vs veh, ZDHHC17 / RFU, NOM1 / Fold change vs veh, NOM1 / RFU, ARL8B / Fold change vs veh, ARL8B / RFU, ZBTB11 / Fold change vs veh, ZBTB11 / RFU, TAMM41 / Fold change vs veh, TAMM41 / RFU, KIAA1704 /// LOC100996395 / Fold change vs veh, KIAA1704 /// LOC100996395 / RFU, ING1 / Fold change vs veh, ING1 / RFU, TRMT61B / Fold change vs veh, TRMT61B / RFU, FUBP3 / Fold change vs veh, FUBP3 / RFU, TP53 / Fold change vs veh, TP53 / RFU, TNKS2 / Fold change vs veh, TNKS2 / RFU, ZFP14 / Fold change vs veh, ZFP14 / RFU, ACTR2 / Fold change vs veh, ACTR2 / RFU, PPP3R1 / Fold change vs veh, PPP3R1 / RFU, PIK3R1 / Fold change vs veh, PIK3R1 / RFU, HNRNPA1 / Fold change vs veh, HNRNPA1 / RFU, RNF170 / Fold change vs veh, RNF170 / RFU, ZNF28 / Fold change vs veh, ZNF28 / RFU, RNGTT / Fold change vs veh, RNGTT / RFU, OGT / Fold change vs veh, OGT / RFU, BRD1 / Fold change vs veh, BRD1 / RFU, MARS / Fold change vs veh, MARS / RFU, ZNF655 / Fold change vs veh, ZNF655 / RFU, FAHD1 / Fold change vs veh, FAHD1 / RFU, BDP1 / Fold change vs veh, BDP1 / RFU, LRRCC1 / Fold change vs veh, LRRCC1 / RFU, ARID1A / Fold change vs veh, ARID1A / RFU, ZNF146 / Fold change vs veh, ZNF146 / RFU, ZNF330 / Fold change vs veh, ZNF330 / RFU, GPN3 / Fold change vs veh, GPN3 / RFU, C9orf123 / Fold change vs veh, C9orf123 / RFU, N4BP2L2 / Fold change vs veh, N4BP2L2 / RFU, ARFIP1 / Fold change vs veh, ARFIP1 / RFU, FAM179B / Fold change vs veh, FAM179B / RFU, BCL10 / Fold change vs veh, BCL10 / RFU, UHRF1BP1L / Fold change vs veh, UHRF1BP1L / RFU, BET1 / Fold change vs veh, BET1 / RFU, CNOT2 / Fold change vs veh, CNOT2 / RFU, ZNF268 / Fold change vs veh, ZNF268 / Fold change vs veh, ZNF507 / RFU, DGCR2 / Fold change vs veh, DGCR2 / RFU, WDSUB1 / Fold change vs veh, WDSUB1 / Fold change vs veh, HSP90B1 /// MIR3652 / RFU, ADSS / Fold change vs veh, ADSS / RFU, GK / Fold change vs veh, GK / RFU, ZNF148 / Fold change vs veh, ZNF148 / RFU, TAF9 / Fold change vs veh, TAF9 / RFU, SLC1A5 / Fold change vs veh, SLC1A5 / RFU, SLMO2 / Fold change vs veh, SLMO2 / RFU, ABCC4 / Fold change vs veh, ABCC4 / RFU, LOC101060439 /// RAP1B / Fold change vs veh, LOC101060439 /// RAP1B / RFU, RFX7 / Fold change vs veh, RFX7 / RFU, GTPBP10 / Fold change vs veh, GTPBP10 / RFU, CNEP1R1 / Fold change vs veh, CNEP1R1 / RFU, BIVM-ERCC5 /// ERCC5 / Fold change vs veh, BIVM-ERCC5 /// ERCC5 / RFU, ILF3 / Fold change vs veh, ILF3 / RFU 11762660_at / Fold change /veh 11762660_at / RFU VCAN (11757783_s_at) / Fold change /veh VCAN (11757783_s_at) / RFU DDX43 (11728927_at) / Fold change /veh DDX43 (11728927_at) / RFU KRT8 (11758188_x_at) / Fold change /veh KRT8 (11758188_x_at) / RFU NKD1 (11759106_at) / Fold change /veh NKD1 (11759106_at) / RFU SRD5A1 (11742802_a_at) / Fold change /veh SRD5A1 (11742802_a_at) / RFU TPSAB1 /// TPSB2 (11721975_s_at) / Fold change /veh TPSAB1 /// TPSB2 (11721975_s_at) / RFU GSTM3 (11746129_a_at) / Fold change /veh GSTM3 (11746129_a_at) / RFU IL23R (11737362_x_at) / Fold change /veh IL23R (11737362_x_at) / RFU TMEM51 (11727254_a_at) / Fold change /veh TMEM51 (11727254_a_at) / RFU PIWIL2 (11732686_x_at) / Fold change /veh PIWIL2 (11732686_x_at) / RFU ORM1 (11744905_x_at) / Fold change /veh ORM1 (11744905_x_at) / RFU CCDC152 (11743942_at) / Fold change /veh CCDC152 (11743942_at) / RFU ECM1 (11717891_a_at) / Fold change /veh ECM1 (11717891_a_at) / RFU IL23R (11748794_a_at) / Fold change /veh IL23R (11748794_a_at) / RFU TNFAIP8L3 (11732012_x_at) / Fold change /veh TNFAIP8L3 (11732012_x_at) / RFU MBOAT4 (11741988_at) / Fold change /veh MBOAT4 (11741988_at) / RFU 11764193_at / Fold change /veh 11764193_at / RFU TMEM53 (11763286_at) / Fold change /veh TMEM53 (11763286_at) / RFU MAGEB2 (11727129_at) / Fold change /veh MAGEB2 (11727129_at) / RFU TMEM200A (11744735_a_at) / Fold change /veh TMEM200A (11744735_a_at) / RFU CCDC152 (11751479_a_at) / Fold change /veh CCDC152 (11751479_a_at) / RFU FAM211A (11726209_a_at) / Fold change /veh FAM211A (11726209_a_at) / RFU RGS16 (11746705_a_at) / Fold change /veh RGS16 (11746705_a_at) / RFU VCAN (11755009_s_at) / Fold change /veh VCAN (11755009_s_at) / RFU RHOB (11743442_s_at) / Fold change /veh RHOB (11743442_s_at) / RFU RGS16 (11720943_a_at) / Fold change /veh RGS16 (11720943_a_at) / RFU RGS16 (11720944_at) / Fold change /veh RGS16 (11720944_at) / RFU, VPS4B / Fold change vs veh, VPS4B / RFU, CREB1 / Fold change vs veh, CREB1 / RFU, DNAJC13 / Fold change vs veh, DNAJC13 / RFU, GNAQ / Fold change vs veh, GNAQ / RFU, CDK5R1 / Fold change vs veh, CDK5R1 / RFU, ZRANB3 / Fold change vs veh, ZRANB3 / RFU, CUL4A / Fold change vs veh, CUL4A / RFU, CCNY / Fold change vs veh, CCNY / RFU, UFL1 / Fold change vs veh, UFL1 / RFU, COG3 / Fold change vs veh, COG3 / RFU, DIAPH2 / Fold change vs veh, DIAPH2 / RFU, SKA2 / Fold change vs veh, SKA2 / RFU, AFF3 / Fold change vs veh, AFF3 / RFU, LMF1 / Fold change vs veh, LMF1 / RFU, IPO11 / Fold change vs veh, IPO11 / RFU, DFFB / Fold change vs veh, DFFB / RFU, FOXP1 / Fold change vs veh, FOXP1 / RFU, CARD8 / Fold change vs veh, CARD8 / RFU, STRN3 / Fold change vs veh, STRN3 / RFU, ADK / Fold change vs veh, ADK / RFU, RASSF2 / Fold change vs veh, RASSF2 / RFU, WIPF1 / Fold change vs veh, WIPF1 / RFU, LARP1B / Fold change vs veh, LARP1B / RFU, RASA1 / Fold change vs veh, RASA1 / RFU, RB1 / Fold change vs veh, RB1 / RFU, PPFIA1 / Fold change vs veh, PPFIA1 / RFU, MAT2A / Fold change vs veh, MAT2A / RFU, CCT5 / Fold change vs veh, CCT5 / RFU, WDR92 / Fold change vs veh, WDR92 / RFU, CUX1 / Fold change vs veh, CUX1 / RFU, TTC7A / Fold change vs veh, TTC7A / RFU, TMEM135 / Fold change vs veh, TMEM135 / RFU, DEPTOR / Fold change vs veh, DEPTOR / RFU, CPM / Fold change vs veh, CPM / RFU, DNAJB6 / Fold change vs veh, DNAJB6 / RFU, CACNA2D3 / Fold change vs veh, CACNA2D3 / RFU, DTX4 / Fold change vs veh, DTX4 / RFU, TFCP2 / Fold change vs veh, TFCP2 / RFU, GMCL1 /// GMCL1P1 / Fold change vs veh, GMCL1 /// GMCL1P1 / RFU, AEBP2 / Fold change vs veh, AEBP2 / RFU, SNHG1 /// SNORD22 /// SNORD25 /// SNORD26 /// SNORD27 /// SNORD28 /// SNORD29 /// SNORD31 / Fold change vs veh, SNHG1 /// SNORD22 /// SNORD25 /// SNORD26 /// SNORD27 /// SNORD28 /// SNORD29 /// SNORD31 / Fold change (Aza/veh), C12orf56 (ProbeSet 11735607_a_at) / Fold change (ACY-1035/veh), C12orf56 (ProbeSet 11735607_a_at) / Fold change (Aza/veh), FGFR1OP (ProbeSet 11751329_s_at) / Fold change (ACY-1035/veh), FGFR1OP (ProbeSet 11751329_s_at) / Fold change (Aza/veh), VPS36 (ProbeSet 11739960_a_at) / Fold change (ACY-1035/veh), VPS36 (ProbeSet 11739960_a_at) / RFU SYPL1 (11715823_x_at) / Fold change /veh SYPL1 (11715823_x_at) / RFU IGFBP7 (11715501_s_at) / Fold change /veh IGFBP7 (11715501_s_at) / RFU REEP3 (11722064_at) / Fold change /veh REEP3 (11722064_at) / RFU IGLL1 (11728026_x_at) / Fold change /veh IGLL1 (11728026_x_at): dose or concentration left out as unconfirmed
Details: MV-4-11 cells, 48 hours

Nc1ccc(-c2cccs2)cc1NC(=O)c1ccc2c(c1)cc(C1CC1)n2CCN1CCOCC1 [ACY-1035]
Fold change /veh FAM212B (11763350_a_at): 1.09
